The values below come from paper PMC8449414, “Rational design of ASCT2 inhibitors using an integrated experimental-computational approach” (Proceedings of the National Academy of Sciences of the …, 2021).

This assay concerns the target T1, rASCT2 (Rattus norvegicus, UniProt D3ZJ25).
T1 construct: expressed in transfected cells; host or cells: HEK293 (ATCC CRL-11268), transient transfection
T1 sequence (D3ZJ25 1-555): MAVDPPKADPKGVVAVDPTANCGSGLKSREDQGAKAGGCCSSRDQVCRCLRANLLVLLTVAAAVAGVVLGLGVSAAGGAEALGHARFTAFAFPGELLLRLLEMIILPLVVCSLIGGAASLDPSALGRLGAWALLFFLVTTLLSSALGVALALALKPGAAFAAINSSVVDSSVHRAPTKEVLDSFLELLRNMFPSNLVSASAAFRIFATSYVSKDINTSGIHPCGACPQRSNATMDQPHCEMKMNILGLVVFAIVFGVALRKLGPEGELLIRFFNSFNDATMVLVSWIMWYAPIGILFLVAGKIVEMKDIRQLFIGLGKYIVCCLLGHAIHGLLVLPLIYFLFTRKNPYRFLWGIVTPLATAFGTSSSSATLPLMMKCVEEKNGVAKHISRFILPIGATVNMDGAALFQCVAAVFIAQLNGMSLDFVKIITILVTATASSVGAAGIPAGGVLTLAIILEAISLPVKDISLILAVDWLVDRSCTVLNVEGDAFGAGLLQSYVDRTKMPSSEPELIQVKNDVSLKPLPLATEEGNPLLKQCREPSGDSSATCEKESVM
Put plainly: Inhibitor dissociation kinetics by ligand displacement with alanine (rapid solution exchange). The assay is classed as cell-based. How it is done:
Fig. 2. […] (A) Electrophysiological recordings obtained after application of alanine (red trace) and increasing concentrations of Lc-BPE (black traces). The times of application of alanine or Lc-BPE are shown by a gray bar (top). (B and C) Lc-BPE inhibitor dose–response relationships for rASCT2 and hASCT2, respectively. […] Currents were normalized to the current recorded after application of 10 µM inhibitor concentration. (D) Inhibition of glutamine uptake (5 µM external concentration) in the presence of varying concentration of Lc-BPE and 5 µM glutamine measured in proteoliposomes reconstituted with purified hASCT2. […] Errors bars represent SEM from at least two biologically independent measurements. (E) Current recorded after rapid solution exchange from extracellular buffer (control, gray bar, black trace) to a solution containing buffer + 5 mM alanine (white bar). For the red trace, the cell was preincubated with 10 µM Lc-BPE (red bar, red trace) followed by rapid application of 5 mM alanine. All current recordings were performed at 0 mV in the presence of 130 mM NaSCN internal and 140 mM NaCl external (homoexchange) solutions. […]
To test this, we measured the dissociation kinetics of Lc-BPE using a ligand displacement approach. First, rASCT2-expressing cells were preincubated with a saturating solution of Lc-BPE (10 µM), and subsequently the inhibitor was displaced using a supersaturating concentration of the substrate L-alanine (5 mM) (Fig. 2 E and F).

Where [1] appears, read: preincubation with 10 µM inhibitor, displaced with 5 mM alanine.

Molecules are shown by their SMILES.

`O=C(O[C@@H]1CN[C@H](C(=O)O)C1)c1ccc(-c2ccccc2)cc1` [Lc-BPE, L-cis hydroxyproline biphenyl ester]: the “slowing of activation of the anion current by alanine after preincubation” value (10 µM inhibitor preincubation, 5 mM alanine) is “more than sixfold”. The “rate constant kobs, mean (single-exponential fit)” value (preapplied 10 µM inhibitor followed by 5 mM alanine, 0 mV) stood at 4.9 ± 0.2 s⁻¹. Also, under setting [1], the “rate constant for dissociation” value amounted to 2.16 s⁻¹ and the “residence time in the rASCT2 binding site” value was approximately 500 ms.
